Here are results for 26 compounds from US9433622B2, “Pyrimidine compounds useful in the treatment of diseases mediated by IKKE and/or TBK1 mechanisms” (DOMAINEX LIMITED, priority 2013, dated 2016).

Structures are written as SMILES. Where two headings read alike, the source gives them in different places.

For one test, the target named is IKKε (Homo sapiens (Human), UniProt Q14164). In words: Lanthascreen TR-FRET kinase inhibition assay, IKKε. Type of test: biochemical. How it is done:
(§1) Compounds of the invention (synthesised as described below) were tested for activity against the IKKε and TBK-1 enzyme as follows:
(§2) Inhibitions studies were performed using a time-resolved fluorescence-based Lanthascreen™ assay. Phosphorylation of a fluorescein-labelled substrate peptide is measured using terbium-labeled phosphospecific antibodies.
(§3) Kinase inhibition assays (10 μL) were performed at 20° C. in 384-well plate format. […] The final reaction conditions contained 400 nM fluorescein-IkBα substrate ([…]), 20 μM ATP, 2 nM or 8 nM IKKε or TBK1 kinase respectively, and 3% DMSO in kinase assay buffer consisting of 50 mM HEPES (pH 7.5), 10 mM MgCl, 1 mM EGTA, 0.01% Brij-35.
(§4) Compound dilutions were prepared from 10 mM DMSO stocks by dilution into DMSO.
(§5) The kinase phosphorylation assay was initiated by the addition of the kinase and the reaction was allowed to proceed for 1 h or 2.5 h for IKKε and TBK-1 kinase respectively.
Background: TR-FRET usually uses a lanthanide donor and a delayed reading to cut background.

The target of another test is TBK1 (Homo sapiens (Human), UniProt Q9UHD2). In words: Lanthascreen TR-FRET kinase inhibition assay, TBK1. The following applies: 20 μM ATP (apparent Km), 8 nM kinase, 2.5 h. Type of test: biochemical. The procedure: as §1, §2, §3, §4, §5
Setting [1] is: 20 μM ATP (apparent Km), 2 nM kinase, 1 h.

Chain of TBK1 (Q9UHD2 whole entry): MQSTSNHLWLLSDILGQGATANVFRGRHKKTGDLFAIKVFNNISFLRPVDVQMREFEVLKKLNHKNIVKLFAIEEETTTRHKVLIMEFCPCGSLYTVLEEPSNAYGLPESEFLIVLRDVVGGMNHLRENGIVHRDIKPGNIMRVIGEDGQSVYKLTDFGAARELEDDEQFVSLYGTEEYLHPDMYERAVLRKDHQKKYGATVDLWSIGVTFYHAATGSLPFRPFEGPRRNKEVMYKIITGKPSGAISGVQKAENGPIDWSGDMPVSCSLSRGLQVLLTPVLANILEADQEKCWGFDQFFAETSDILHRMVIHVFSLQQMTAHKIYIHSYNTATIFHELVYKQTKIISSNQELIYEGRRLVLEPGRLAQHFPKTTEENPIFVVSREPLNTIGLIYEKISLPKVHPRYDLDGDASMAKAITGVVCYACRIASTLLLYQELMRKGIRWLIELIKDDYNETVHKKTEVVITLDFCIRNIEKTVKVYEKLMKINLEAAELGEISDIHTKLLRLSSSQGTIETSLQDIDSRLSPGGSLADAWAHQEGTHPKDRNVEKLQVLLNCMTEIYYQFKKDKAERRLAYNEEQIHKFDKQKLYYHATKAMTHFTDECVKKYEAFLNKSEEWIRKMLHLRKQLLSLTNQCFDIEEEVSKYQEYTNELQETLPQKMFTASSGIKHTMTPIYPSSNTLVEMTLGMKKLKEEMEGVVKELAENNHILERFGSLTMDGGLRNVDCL
Chain of IKKε (Q14164 whole entry): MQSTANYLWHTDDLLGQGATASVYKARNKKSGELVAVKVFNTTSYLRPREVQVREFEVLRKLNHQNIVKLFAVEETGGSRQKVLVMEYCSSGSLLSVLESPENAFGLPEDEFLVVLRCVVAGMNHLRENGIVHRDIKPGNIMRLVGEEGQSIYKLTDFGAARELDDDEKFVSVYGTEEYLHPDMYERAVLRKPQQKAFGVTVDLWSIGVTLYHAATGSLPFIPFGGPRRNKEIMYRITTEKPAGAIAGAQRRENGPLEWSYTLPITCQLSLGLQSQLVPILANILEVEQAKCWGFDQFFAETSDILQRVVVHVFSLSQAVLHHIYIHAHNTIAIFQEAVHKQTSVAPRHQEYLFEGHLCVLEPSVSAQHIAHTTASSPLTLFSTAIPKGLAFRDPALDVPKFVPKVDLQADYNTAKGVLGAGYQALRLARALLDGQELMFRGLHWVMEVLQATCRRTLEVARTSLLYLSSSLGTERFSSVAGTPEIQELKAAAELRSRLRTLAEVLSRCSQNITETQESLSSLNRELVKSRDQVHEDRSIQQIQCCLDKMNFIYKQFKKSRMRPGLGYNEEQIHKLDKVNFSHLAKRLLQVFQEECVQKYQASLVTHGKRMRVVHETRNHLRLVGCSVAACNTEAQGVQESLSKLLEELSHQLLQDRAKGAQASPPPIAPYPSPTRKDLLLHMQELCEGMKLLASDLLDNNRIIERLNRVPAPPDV

In the case of `CN1CCC(NC(=O)c2cccc(Nc3nccc(-c4cnc(N5CC[C@H](F)C5)c(C#N)c4)n3)c2)CC1` [DMX-1, 3-{4-[5-Cyano-6-((S)-3-fluoro-pyrrolidin-1-yl)-pyridin-3-yl]-pyrimidin-2-ylamino}-N-(1-methyl-piperidin-4-yl)-benzamide], the figures for the IC50 on IKKε (setting [1]) and on TBK1 were < 100 nM and < 30 nM, respectively.
`N#Cc1cc(-c2ccnc(Nc3cccc(C(N)=O)c3)n2)cnc1N1CCCC1` [DMX-2, 3-[4-(5-Cyano-6-pyrrolidin-1-yl-pyridin-3-yl)-pyrimidin-2-ylamino]-benzamide]: the IC50 at IKKε (setting [1]) and at TBK1 was < 30 nM in each case.
Turning to `CN1CCN(c2ccc(Nc3nccc(-c4cnc(N5CCCC5)c(C#N)c4)n3)cn2)CC1` [DMX-3, 5-{2-[6-(4-Methyl-piperazin-1-yl)-pyridin-3-ylamino]-pyrimidin-4-yl}-2-pyrrolidin-1-yl-nicotinonitrile], the IC50 at IKKε (setting [1]) and at TBK1 was < 15 nM throughout.
`N#Cc1cc(-c2ccnc(Nc3ccc(N4CCOCC4)cc3)n2)cnc1N1CCCC1` [DMX-5, 5-[2-(4-Morpholin-4-yl-phenylamino)-pyrimidin-4-yl]-2-pyrrolidin-1-yl-nicotinonitrile]: the IC50 is < 30 nM at IKKε (setting [1]) and < 15 nM at TBK1.
The like results for `CN1CCN(C(=O)c2cccc(Nc3nccc(-c4cnc(N5CC[C@H](F)C5)c(C#N)c4)n3)c2)CC1` [DMX-6, 2-((S)-3-Fluoro-pyrrolidin-1-yl)-5-{2-[3-(4-methyl-piperazine-1-carbonyl)-phenylamino]-pyrimidin-4-yl}-nicotinonitrile] were, in that order, < 100 nM and < 30 nM.
The like results for `Cn1cc(Nc2nccc(-c3cnc(N4CC[C@H](F)C4)c(C#N)c3)n2)cn1` [DMX-7, 2-((S)-3-Fluoro-pyrrolidin-1-yl)-5-[2-(1-methyl-1H-pyrazol-4-ylamino)-pyrimidin-4-yl]-nicotinonitrile] were, in that order, < 30 nM and < 30 nM.
The like results for `CC(=O)Nc1ccc(Nc2nccc(-c3cnc(N4CC[C@H](F)C4)c(C#N)c3)n2)cn1` [DMX-8, N-(5-{4-[5-Cyano-6-((S)-3-fluoro-pyrrolidin-1-yl)-pyridin-3-yl]-pyrimidin-2-ylamino}-pyridin-2-yl)-acetamide] were, in that order, < 30 nM and < 30 nM.
For the compound `CN1CCC(Nc2ccc(Nc3nccc(-c4cnc(N5CC[C@H](F)C5)c(C#N)c4)n3)cn2)CC1` [DMX-9, 2-((S)-3-Fluoro-pyrrolidin-1-yl)-5-{2-[6-(1-methyl-piperidin-4-ylamino)-pyridin-3-ylamino]-pyrimidin-4-yl}-nicotinonitrile], the IC50 at IKKε (setting [1]) was < 15 nM; on TBK1 it was < 30 nM.
With `N#Cc1cc(-c2ccnc(Nc3ccc(NC4CCNCC4)nc3)n2)cnc1N1CC[C@H](F)C1` [DMX-10, 2-((S)-3-Fluoro-pyrrolidin-1-yl)-5-{2-[6-(piperidin-4-ylamino)-pyridin-3-ylamino]-pyrimidin-4-yl}-nicotinonitrile], the IC50 at IKKε (setting [1]) and on TBK1 was < 30 nM throughout.
As to `N#Cc1cc(-c2ccnc(Nc3cccc(C(=O)NC4CCNCC4)c3)n2)cnc1N1CC[C@H](F)C1` [DMX-11, 3-{4-[5-Cyano-6-((S)-3-fluoro-pyrrolidin-1-yl)-pyridin-3-yl]-pyrimidin-2-ylamino}-N-piperidin-4-yl-benzamide], the IC50 on IKKε (setting [1]) and on TBK1 was < 30 nM in each case.
In the case of `CN1CCC(NC(=O)c2cccc(Nc3nccc(-c4cnc(N5CC[C@H](O)C5)c(C#N)c4)n3)c2)CC1` [DMX-12, 3-{4-[5-Cyano-6-((S)-3-hydroxy-pyrrolidin-1-yl)-pyridin-3-yl]-pyrimidin-2-ylamino}-N-(1-methyl-piperidin-4-yl)-benzamide], the values for the IC50 at IKKε (setting [1]) and on TBK1 were < 1000 nM and < 100 nM, respectively.
The like results for `CN1CCC(Nc2ccc(Nc3nccc(-c4cnc(N5CC[C@H](O)C5)c(C#N)c4)n3)cn2)CC1` [DMX-13, 2-((S)-3-Hydroxy-pyrrolidin-1-yl)-5-{2-[6-(1-methyl-piperidin-4-ylamino)-pyridin-3-ylamino]-pyrimidin-4-yl}-nicotinonitrile] were, in that order, < 100 nM and < 100 nM.
The matching figures for `CN1CCC(NC(=O)c2cccc(Nc3nccc(-c4cnc(N5CCC(F)(F)C5)c(C#N)c4)n3)c2)CC1` [DMX-14, 3-{4-[5-Cyano-6-(3,3-difluoro-pyrrolidin-1-yl)-pyridin-3-yl]-pyrimidin-2-ylamino}-N-(1-methyl-piperidin-4-yl)-benzamide]: < 100 nM and < 100 nM.
The like results for `CN1CCC(Nc2ccc(Nc3nccc(-c4cnc(N5CCC(F)(F)C5)c(C#N)c4)n3)cn2)CC1` [DMX-15, 2-(3,3-Difluoro-pyrrolidin-1-yl)-5-{2-[6-(1-methyl-piperidin-4-ylamino)-pyridin-3-ylamino]-pyrimidin-4-yl}-nicotinonitrile] were, in that order, < 100 nM and < 30 nM.
As to `Cn1cc(Nc2nccc(-c3cnc(N4CC[C@H](O)C4)c(C#N)c3)n2)cn1` [DMX-16, 2-((S)-3-Hydroxy-pyrrolidin-1-yl)-5-[2-(1-methyl-1H-pyrazol-4-ylamino)-pyrimidin-4-yl]-nicotinonitrile], the IC50 at IKKε (setting [1]) and at TBK1 was < 100 nM throughout.
With `N#Cc1cc(-c2ccnc(Nc3ccc(NC(=O)CN4CCOCC4)nc3)n2)cnc1N1CC[C@H](F)C1` [DMX-17, N-(5-{4-[5-Cyano-6-((S)-3-fluoro-pyrrolidin-1-yl)-pyridin-3-yl]-pyrimidin-2-ylamino}-pyridin-2-yl)-2-morpholin-4-yl-acetamide], the IC50 on IKKε (setting [1]) and at TBK1 was < 30 nM in each case.
Consider `CC(C(=O)Nc1ccc(Nc2nccc(-c3cnc(N4CC[C@H](F)C4)c(C#N)c3)n2)cn1)N(C)C` (stereo partly drawn) [DMX-18, N-(5-{4-[5-Cyano-6-((S)-3-fluoro-pyrrolidin-1-yl)-pyridin-3-yl]-pyrimidin-2-ylamino}-pyridin-2-yl)-2-dimethylamino-propionamide], for which the IC50 on IKKε (setting [1]) and at TBK1 was < 100 nM each time.
Turning to `N#Cc1cc(-c2ccnc(Nc3ccc(NC(=O)C4CC4)nc3)n2)cnc1N1CC[C@H](F)C1` [DMX-19, Cyclopropanecarboxylic acid (5-{4-[5-cyano-6-((S)-3-fluoro-pyrrolidin-1-yl)-pyridin-3-yl]-pyrimidin-2-ylamino}-pyridin-2-yl)-amide], the IC50 on IKKε (setting [1]) and on TBK1 was < 100 nM throughout.
Take `N#Cc1cc(-c2ccnc(Nc3cnc(N4CCOCC4)nc3)n2)cnc1N1CC[C@H](F)C1` [DMX-20, 2-((S)-3-Fluoro-pyrrolidin-1-yl)-5-[2-(2-morpholin-4-yl-pyrimidin-5-ylamino)-pyrimidin-4-yl]-nicotinonitrile]: the IC50 on IKKε (setting [1]) and on TBK1 was < 100 nM in each case.
`COCCN(C)CC(=O)Nc1ccc(Nc2nccc(-c3cnc(N4CC[C@H](F)C4)c(C#N)c3)n2)cn1` [DMX-21, N-(5-{4-[5-Cyano-6-((S)-3-fluoro-pyrrolidin-1-yl)-pyridin-3-yl]-pyrimidin-2-ylamino}-pyridin-2-yl)-2-[(2-methoxy-ethyl)-methyl-amino]-acetamide]: the IC50 at IKKε (setting [1]) and on TBK1 was < 30 nM throughout.
As for `CC(C)(O)CNc1ccc(Nc2nccc(-c3cnc(N4CC[C@H](F)C4)c(C#N)c3)n2)cn1` [DMX-22, 2-((S)-3-Fluoro-pyrrolidin-1-yl)-5-{2-[6-(2-hydroxy-2-methyl-propylamino)-pyridin-3-ylamino]-pyrimidin-4-yl}-nicotinonitrile], the IC50 was < 15 nM on IKKε (setting [1]) and < 30 nM on TBK1.
The like results for `CC(C)N1CCN(CC(=O)Nc2ccc(Nc3nccc(-c4cnc(N5CC[C@H](F)C5)c(C#N)c4)n3)cn2)CC1` [DMX-23, N-(5-{4-[5-Cyano-6-((S)-3-fluoro-pyrrolidin-1-yl)-pyridin-3-yl]-pyrimidin-2-ylamino}-pyridin-2-yl)-2-(4-isopropyl-piperazin-1-yl)-acetamide] were, in that order, < 30 nM and < 30 nM.
The matching figures for `CN1CCN(c2ccc(Nc3nccc(-c4cnc(N5CC[C@H](F)C5)c(C#N)c4)n3)cn2)CC1` [DMX-24, 2-((S)-3-Fluoro-pyrrolidin-1-yl)-5-{2-[6-(4-methyl-piperazin-1-yl)-pyridin-3-ylamino]-pyrimidin-4-yl}-nicotinonitrile]: < 15 nM and < 15 nM.
The like results for `N#Cc1cc(-c2ccnc(Nc3ccc(N4CCNCC4)nc3)n2)cnc1N1CC[C@H](F)C1` [DMX-25, 2-((S)-3-Fluoro-pyrrolidin-1-yl)-5-[2-(6-piperazin-1-yl-pyridin-3-ylamino)-pyrimidin-4-yl]-nicotinonitrile] were, in that order, < 15 nM and < 30 nM.
Turning to `C[C@@H]1CN(c2ccc(Nc3nccc(-c4cnc(N5CC[C@H](O)C5)c(C#N)c4)n3)cn2)CCN1` [DMX-26, 2-((S)-3-Hydroxy-pyrrolidin-1-yl)-5-{2-[6-((R)-3-methyl-piperazin-1-yl)-pyridin-3-ylamino]-pyrimidin-4-yl}-nicotinonitrile], the values for the IC50 on IKKε (setting [1]) and at TBK1 were < 100 nM and < 30 nM, respectively.
For the compound `N#Cc1cc(-c2ccnc(Nc3ccc(NCCO)nc3)n2)cnc1N1CC[C@H](F)C1` [DMX-27, 2-((S)-3-Fluoro-pyrrolidin-1-yl)-5-{2-[6-(2-hydroxy-ethylamino)-pyridin-3-ylamino]-pyrimidin-4-yl}-nicotinonitrile], the IC50 against IKKε and at TBK1 was < 30 nM throughout.

As a reminder, the IC50 is the concentration at which inhibition is half-maximal.
